Laboratory results: patent US7393952B2, “Solvent free amorphous rapamycin” (Cordis Corporation, priority 2004, dated 2008)

Test: differential scanning calorimetry (DSC) of amorphous sirolimus
Format: physicochemical
Details: DSC curve for this sample (FIG. 6); about 3 mg, heating rate 2° C./min, -40 to 200° C., nitrogen flow
Method: In another test, the amorphous sirolimus is analyzed utilizing differential scanning calorimetry (DSC). Essentially, the purpose of this test is to determine the glass transition temperature of the amorphous sirolimus. In this test, approximately 3 mg of amorphous sirolimus is transferred into a standard aluminum TA-Instrument sample pan and covered. The DSC curve is recorded on a TA-Instruments Q1000 MTDSC equipped with a RCS cooling unit. FIG. 6 illustrates a differential scanning calorimetry (DSC) curve of amorphous sirolimus. […] Based on a number of scans, the glass transition temperatures may be in the range from about 92 degrees C. to about 95 degrees C.

glass transition temperature: about 93 degrees C.
SMILES: CO[C@H]1C[C@@H]2CC[C@@H](C)[C@@](O)(O2)C(=O)C(=O)N2CCCC[C@H]2C(=O)O[C@H]([C@H](C)C[C@@H]2CC[C@@H](O)[C@H](OC)C2)CC(=O)[C@H](C)/C=C(\C)[C@@H](O)[C@@H](OC)C(=O)[C@H](C)C[C@H](C)/C=C/C=C/C=C/1C [amorphous sirolimus, sirolimus (rapamycin)]
